Experimental data: ChEMBL document CHEMBL4152250, “Antibacterial and anti-TB tat-peptidomimetics with improved efficacy and half-life” (Eur J Med Chem, 2018)
Converted amounts (≈) assume the structure as drawn. Numbered stars: 1 amine (or outer) side, 2 acyl side, 3 side chain; on linkers, the order of the positions; unused ones are H or OH. Square brackets hold non-standard residues; d marks the D form. Peptide text beside a SMILES is read from it. Pro(N-(CH2)3Gua,cis-4-NH-) = N=C(N)NCCCN1C[C@@H](N[*:1])C[C@H]1C(=O)[*:2]; Pro(cis-4-guanidino) = NC(N)=N[C@@H]1CN[C@H](C(=O)O)C1; X1 = NCCCN1C[C@@H](N[*:1])C[C@H]1C(=O)[*:2]; Ethylenediamine = C(CN[*:2])N[*:1]; βAla = NCCC(=O)O

Columns and labels:
[1] = test system: Mycobacterium tuberculosis; assay: Antitubercular activity against multidrug-resistant dormant stage of Mycobacterium tuberculosis H37Ra after 12 days by XRMA; assay type: functional, organism-based; conditions: 288 h
[2] = test system: Mycobacterium tuberculosis; assay: Antitubercular activity against multidrug-resistant active stage of Mycobacterium tuberculosis H37Ra after 8 days by XRMA; assay type: functional, organism-based; conditions: 192 h

| SMILES | IC50 [1] [µM] | IC50 [2] [µM] | MIC [1] [µM] | MIC [2] [µM] |
| --- | --- | --- | --- | --- |
| CC(=O)N[C@@H](Cc1ccccc1)C(=O)NCC(=O)N[C@@H](CCCNC(=N)N)C(=O)N[C@@H](CCCCN)C(=O)N[C@@H](CCCCN)C(=O)N[C@@H](CCCNC(=N)N)C(=O)N[C@@H](CCCNC(=N)N)C(=O)N[C@@H](CCC(N)=O)C(=O)N[C@@H](CCCNC(=N)N)C(=O)N[C@@H](CCCNC(=N)N)C(=O)N[C@@H](CCCNC(=N)N)C(N)=O | 19.2 | > 60 | – | – |
| CC(=O)N[C@@H](Cc1ccccc1)C(=O)NCC(=O)N[C@@H](CCCNC(=N)N)C(=O)N[C@@H](CCCCN)C(=O)N[C@@H](CCCCN)C(=O)N[C@@H](CCCNC(=N)N)C(=O)N[C@@H](CCCNC(=N)N)C(=O)N[C@@H](CCC(N)=O)C(=O)N[C@@H](CCCNC(=N)N)C(=O)N[C@@H](CCCNC(=N)N)C(=O)N[C@H]1C[C@@H](C(=O)NCCC(N)=O)N(CCCNC(=N)N)C1 (Ac-FGRKKRRQRR[Pro(N-(CH2)3Gua,cis-4-NH-)][βAla]-NH2) | 1.28 | 1.85 | 12 (≈ 20.5 µg/mL) | 22.1 (≈ 37.8 µg/mL) |
| CC(=O)N[C@@H](Cc1ccccc1)C(=O)NCC(=O)N1C[C@@H](NC(=N)N)C[C@H]1C(=O)N[C@@H](CCCCN)C(=O)N[C@@H](CCCCN)C(=O)N[C@@H](CCCNC(=N)N)C(=O)N1C[C@@H](NC(=N)N)C[C@H]1C(=O)N[C@@H](CCC(N)=O)C(=O)N[C@@H](CCCNC(=N)N)C(=O)N[C@@H](CCCNC(=N)N)C(=O)N1C[C@@H](NC(=N)N)C[C@H]1C(=O)NCCC(N)=O (Ac-FG[Pro(cis-4-guanidino)]KKR[Pro(cis-4-guanidino)]QRR[Pro(cis-4-guanidino)][βAla]-NH2) | 0.5 | 1.32 | 6 (≈ 9.9 µg/mL) | 15 (≈ 24.7 µg/mL) |
| CC(=O)N[C@@H](Cc1ccccc1)C(=O)NCC(=O)N[C@H]1C[C@@H](C(=O)N[C@@H](CCCCN)C(=O)N[C@@H](CCCCN)C(=O)N[C@@H](CCCNC(=N)N)C(=O)N[C@H]2C[C@@H](C(=O)N[C@@H](CCC(N)=O)C(=O)N[C@H]3C[C@@H](C(=O)N[C@@H](CCCNC(=N)N)C(=O)N[C@H]4C[C@@H](C(=O)NCCC(N)=O)N(CCCNC(=N)N)C4)N(CCCNC(=N)N)C3)N(CCCNC(=N)N)C2)N(CCCNC(=N)N)C1 | 2.36 | 3.1 | 11.7 (≈ 22 µg/mL) | 24.6 (≈ 46.2 µg/mL) |
| CC(=O)N[C@@H](Cc1ccccc1)C(=O)NCC(=O)N[C@H]1C[C@@H](C(=O)N[C@@H](CCCCN)C(=O)N[C@@H](CCCCN)C(=O)N[C@@H](CCCNC(=N)N)C(=O)N[C@H]2C[C@@H](C(=O)N[C@@H](CCC(N)=O)C(=O)N[C@@H](CCCNC(=N)N)C(=O)N[C@@H](CCCNC(=N)N)C(=O)N[C@H]3C[C@@H](C(=O)NCCC(N)=O)N(CCCNC(=N)N)C3)N(CCCNC(=N)N)C2)N(CCCNC(=N)N)C1 (Ac-FG[Pro(N-(CH2)3Gua,cis-4-NH-)]KKR[Pro(N-(CH2)3Gua,cis-4-NH-)]QRR[Pro(N-(CH2)3Gua,cis-4-NH-)][βAla]-NH2) | 0.67 | 6.4 | 10.4 (≈ 18.9 µg/mL) | 25.3 (≈ 46.1 µg/mL) |
| CO[C@H]1/C=C/O[C@@]2(C)Oc3c(C)c(O)c4c(O)c(c(/C=N/N5CCN(C)CC5)c(O)c4c3C2=O)NC(=O)/C(C)=C\C=C\[C@H](C)[C@H](O)[C@@H](C)[C@@H](O)[C@@H](C)[C@H](OC(C)=O)[C@@H]1C [RIFAMPIN] | – | – | > 12.1 | > 12.1 |
| CC(=O)N[C@@H](Cc1ccccc1)C(=O)NCC(=O)N[C@@H](CCCNC(=N)N)C(=O)N[C@@H](CCCCN)C(=O)N[C@@H](CCCCN)C(=O)N1C[C@@H](NC(=N)N)C[C@H]1C(=O)N[C@@H](CCCNC(=N)N)C(=O)N[C@@H](CCC(N)=O)C(=O)N[C@@H](CCCNC(=N)N)C(=O)N[C@@H](CCCNC(=N)N)C(=O)N[C@@H](CCCNC(=N)N)C(=O)NCCC(N)=O (Ac-FGRKK[Pro(cis-4-guanidino)]RQRRR[βAla]-NH2) | 3.27 | 2.68 | 14.5 (≈ 24 µg/mL) | 15.1 (≈ 25 µg/mL) |
| CC(=O)N[C@@H](Cc1ccccc1)C(=O)NCC(=O)N[C@@H](CCCNC(=N)N)C(=O)N[C@@H](CCCCN)C(=O)N[C@@H](CCCCN)C(=O)N[C@@H](CCCNC(=N)N)C(=O)N[C@@H](CCCNC(=N)N)C(=O)N[C@@H](CCC(N)=O)C(=O)N[C@@H](CCCNC(=N)N)C(=O)N[C@@H](CCCNC(=N)N)C(=O)N1C[C@@H](NC(=N)N)C[C@H]1C(=O)NCCC(N)=O (Ac-FGRKKRRQRR[Pro(cis-4-guanidino)][βAla]-NH2) | 3.1 | 3.1 | 12.9 (≈ 21.3 µg/mL) | 22.5 (≈ 37.2 µg/mL) |
| CC(=O)N[C@@H](Cc1ccccc1)C(=O)NCC(=O)N[C@@H](CCCNC(=N)N)C(=O)N[C@@H](CCCCN)C(=O)N[C@@H](CCCCN)C(=O)N[C@H]1C[C@@H](C(=O)N[C@@H](CCCNC(=N)N)C(=O)N[C@@H](CCC(N)=O)C(=O)N[C@@H](CCCNC(=N)N)C(=O)N[C@@H](CCCNC(=N)N)C(=O)N[C@@H](CCCNC(=N)N)C(=O)NCCC(N)=O)N(CCCNC(=N)N)C1 (Ac-FGRKK[Pro(N-(CH2)3Gua,cis-4-NH-)]RQRRR[βAla]-NH2) | 1.1 | 2 | 10.6 (≈ 18.1 µg/mL) | 13 (≈ 22.2 µg/mL) |
| CC(=O)N[C@@H](Cc1ccccc1)C(=O)NCC(=O)N[C@H]1C[C@@H](C(=O)N[C@@H](CCCCN)C(=O)N[C@@H](CCCCN)C(=O)N[C@@H](CCCNC(=N)N)C(=O)N[C@H]2C[C@@H](C(=O)N[C@@H](CCC(N)=O)C(=O)N[C@@H](CCCNC(=N)N)C(=O)N[C@@H](CCCNC(=N)N)C(=O)N[C@H]3C[C@@H](C(=O)NCCC(N)=O)N(CCCN)C3)N(CCCN)C2)N(CCCN)C1 (Ac-FG[X1]KKR[X1]QRR[X1][βAla]-NH2) | 1.46 | 2.6 | 14 (≈ 23.7 µg/mL) | 23.5 (≈ 39.8 µg/mL) |
| NC(=O)c1cnccn1 [PYRAZINAMIDE] | – | – | > 100 | > 100 |
| CC(=O)N[C@@H](Cc1ccccc1)C(=O)NCC(=O)N1C[C@@H](NC(=N)N)C[C@H]1C(=O)N[C@@H](CCCCN)C(=O)N[C@@H](CCCCN)C(=O)N[C@@H](CCCNC(=N)N)C(=O)N1C[C@@H](NC(=N)N)C[C@H]1C(=O)N[C@@H](CCC(N)=O)C(=O)N1C[C@@H](NC(=N)N)C[C@H]1C(=O)N[C@@H](CCCNC(=N)N)C(=O)N1C[C@@H](NC(=N)N)C[C@H]1C(=O)NCCC(N)=O (Ac-FG[Pro(cis-4-guanidino)]KKR[Pro(cis-4-guanidino)]Q[Pro(cis-4-guanidino)]R[Pro(cis-4-guanidino)][βAla]-NH2) | 1.9 | 10.8 | 21.5 (≈ 35.4 µg/mL) | 26.4 (≈ 43.5 µg/mL) |
| CC(=O)N[C@@H](Cc1ccccc1)C(=O)NCC(=O)N[C@H]1C[C@@H](C(=O)N[C@@H](CCCCN)C(=O)N[C@@H](CCCCN)C(=O)N[C@@H](CCCNC(=N)N)C(=O)N[C@H]2C[C@@H](C(=O)N[C@@H](CCC(N)=O)C(=O)N[C@H]3C[C@@H](C(=O)N[C@@H](CCCNC(=N)N)C(=O)N[C@H]4C[C@@H](C(=O)NCCN)N(CCCN)C4)N(CCCN)C3)N(CCCN)C2)N(CCCN)C1 (Ac-FG[X1]KKR[X1]Q[X1]R[X1]-Ethylenediamine) | 1.08 | 2.8 | 6.6 (≈ 11.1 µg/mL) | 12 (≈ 20.2 µg/mL) |
